Results as given in ChEMBL document CHEMBL1147908, “Preparation of novel anthranilic acids as antibacterial agents. Extensive evaluation of alternative amide bioisosteres connecting the A- and the B-rings” (2007).
Values after ≈ are worked out from the molar mass of the structure shown.

What was measured:
Type in all cases: functional
Streptococcus pneumoniae = test: Antibacterial activity against Streptococcus pneumoniae UC 9912
[1] = tested on: Staphylococcus epidermidis; test: Antibacterial activity against Staphylococcus epidermidis UC 12084
Enterococcus faecalis = test: Antibacterial activity against Enterococcus faecalis UC 9217
Staphylococcus aureus = test: Antibacterial activity against Staphylococcus aureus UC 9218
Haemophilus influenzae = test: Antibacterial activity against Haemophilus influenzae 30063

Row | SMILES | MIC (Streptococcus pneumoniae) [µg/mL] | MIC [1] [µg/mL] | MIC (Enterococcus faecalis) [µg/mL] | MIC (Staphylococcus aureus) [µg/mL] | MIC (Haemophilus influenzae) [µg/mL]
1 | N#Cc1ccc(C=Cc2cccc(S(=O)(=O)N3CCc4cc(Cl)ccc43)c2)c(C(=O)O)c1 | 64 (≈ 138 µM) | 32 (≈ 68.8 µM) | > 128 | 16 (≈ 34.4 µM) | > 128
2 | O=C(O)c1cc(Cl)ccc1-c1ccc(S(=O)(=O)N2CCc3cc(Cl)ccc32)cc1 | > 128 | 128 (≈ 286 µM) | > 128 | 128 (≈ 286 µM) | > 128
3 | Cc1ccc(S(=O)(=O)Nc2ccc(-c3ccc(Cl)cc3)c(C(=O)O)c2)cc1 | > 128 | 64 (≈ 159 µM) | > 128 | > 128 | > 128
4 | N#Cc1ccc(/C=C/c2cccc(S(=O)(=O)N3CCc4cc(Cl)ccc43)c2)c(C(=O)O)c1 | > 128 | 0.5 (≈ 1.08 µM) | 128 (≈ 275 µM) | 0.25 (≈ 0.538 µM) | > 128
5 | O=C(O)c1cc(Br)ccc1-c1nnc(-c2ccccc2)o1 | > 128 | > 128 | > 128 | > 128 | > 128
6 | O=C(O)c1cc(Br)ccc1-c1nnc(-c2ccccc2)[nH]1 | > 128 | > 128 | > 128 | > 128 | > 128
7 | O=C(Nc1ccc(Br)cc1C(=O)O)c1ccc(S(=O)(=O)N2CCc3cc(Cl)ccc32)cc1 | 4 (≈ 7.47 µM) | 4 (≈ 7.47 µM) | 32 (≈ 59.7 µM) | 0.5 (≈ 0.933 µM) | 128 (≈ 239 µM)
8 | N#Cc1ccc([C@H]2C[C@@H]2c2cccc(S(=O)(=O)N3CCc4cc(Cl)ccc43)c2)c(C(=O)O)c1 | > 128 | 8 (≈ 16.7 µM) | > 128 | 4 (≈ 8.35 µM) | 16 (≈ 33.4 µM)
9 | N#Cc1ccc(NC(=S)c2cccc(S(=O)(=O)N3CCc4cc(Cl)ccc43)c2)c(C(=O)O)c1 | 16 (≈ 32.1 µM) | 0.125 (≈ 0.251 µM) | 32 (≈ 64.3 µM) | 0.125 (≈ 0.251 µM) | 64 (≈ 129 µM)
10 | O=C(O)c1cc(Cl)ccc1CCc1ccc(S(=O)(=O)N2CCc3cc(Cl)ccc32)cc1 | 32 (≈ 67.2 µM) | 32 (≈ 67.2 µM) | > 128 | 32 (≈ 67.2 µM) | > 128
